Measurements from patent publication US9593149B2, “Amylin and calcitonin receptor agonist” (Novo Nordisk A/S, priority 2014, dated 2017).
Converted amounts (≈) assume the structure as drawn. Numbered stars: 1 amine (or outer) side, 2 acyl side, 3 side chain; on linkers, the order of the positions; unused ones are H or OH. Peptide text beside a SMILES is read from it. * marks the point of attachment. C20 diacid = O=C(O)CCCCCCCCCCCCCCCCCCC(=O)*; γGlu = O=C(O)[C@H](CCC(=O)[*:2])N[*:1]

Key:
[1] = Assay (IV) determination of solubility; type: physicochemical
Experimental: Assay (IV)—Determination of Solubility
The mimylin peptide was dissolved in water at ˜500 nmol/ml and mixed 1:1 with a series of buffers (100 mM glycylglycine pH 3.0, 100 mM glycylglycine pH 4.0, 100 mM glycylglycine pH 5.0, 100 mM bistrispropane pH 6.0, 100 mM bistrispropane pH 6.5, 100 mM bistrispropane pH 7.0, 100 mM bistrispropane pH 7.5, 100 mM bistrispropane pH 8.0).

rat calcitonin receptor = biological target: T1, rat calcitonin receptor (Rattus norvegicus, UniProt P32214); experiment: Assay (VIII) binding to the rat calcitonin receptor; settings: membranes; read-out: rCT-R binding IC50
T1 construct: expressed in transfected cells; host or cells: BHK tk'ts 13 (transient, FuGENE 6)
T1 sequence (P32214 25-479 isoform P32214-2 limits assumed): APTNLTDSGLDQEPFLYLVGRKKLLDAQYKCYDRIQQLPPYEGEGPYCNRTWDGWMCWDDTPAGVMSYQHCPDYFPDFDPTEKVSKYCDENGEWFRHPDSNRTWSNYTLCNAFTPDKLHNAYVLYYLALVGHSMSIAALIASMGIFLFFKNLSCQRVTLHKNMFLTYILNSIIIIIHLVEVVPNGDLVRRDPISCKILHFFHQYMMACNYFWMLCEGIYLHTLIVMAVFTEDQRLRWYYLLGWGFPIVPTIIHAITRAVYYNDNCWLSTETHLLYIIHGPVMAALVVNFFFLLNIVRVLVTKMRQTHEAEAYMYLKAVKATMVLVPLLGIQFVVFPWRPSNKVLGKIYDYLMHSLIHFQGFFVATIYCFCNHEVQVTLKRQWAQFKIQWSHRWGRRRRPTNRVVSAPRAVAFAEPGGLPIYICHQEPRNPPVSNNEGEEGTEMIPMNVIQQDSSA
Experimental: The morning after, the plates were washed three times in HBSS (4° C.), and lyzed in Lysis buffer (0.1 M NaOH), 1% SDS. Scintillation cocktail (MicroScint40®) was added and the plates were shaken at 500 rpm for a short period. The plate was incubated at room temperature in the dark for 1 hour and Read on a TopCounter™ (Packard). The IC50 was calculated using (one site binding competition analysis) GraphPad Prism5 as a measure of receptor affinity. Assay (VIII)—Determination of Binding to the Rat Calcitonin Receptor
The assay was performed as described above (Assay (VII)—Determination of binding to the human calcitonin receptor) with the exception that we used membranes prepared from BHK tk'ts 13 cells that were transiently transfected with the rat calcitonin receptor. The BHK tk'ts 13 cells were transiently transfected with rat calcitonin receptor using FuGENE® 6 (Roche), according to the manufacturer's recommendations. Cells were grown in DMEM with 10% FBS and 1% Pen/Strep.

Row | Compound | Solubility ([1]; pH 3.0) | solubility at 18 h ([1]; pH 6.0) | Solubility ([1]; pH 6.5) | Solubility ([1]; pH 7.0) | Solubility ([1]; pH 7.5) | Solubility ([1]; pH 8.0) | solubility at 18 h ([1]; pH 4.0) | Solubility ([1]; pH 6.0) | Solubility ([1]; pH 4.0) | solubility at 18 h ([1]; pH 5.0) | solubility at 18 h ([1]; pH 6.5) | solubility at 18 h ([1]; pH 7.0) | solubility at 18 h ([1]; pH 7.5) | solubility at 18 h ([1]; pH 8.0) | IC50 (rat calcitonin receptor)
1 | CC(C)C[C@H](NC(=O)CNC(=O)[C@H](CO)NC(=O)[C@H](C)NC(=O)CC[C@H](NC(=O)CCCCCCCCCCCCCCCCCCC(=O)O)C(=O)O)C(=O)N[C@@H](CO)C(=O)N[C@H](C(=O)N[C@@H](C)C(=O)N[C@H](C(=O)N[C@@H](CC(C)C)C(=O)NCC(=O)N[C@@H](CCCNC(=N)N)C(=O)N[C@@H](CC(C)C)C(=O)N[C@@H](CO)C(=O)N[C@@H](CCC(N)=O)C(=O)N[C@@H](CCC(=O)O)C(=O)N[C@@H](CC(C)C)C(=O)N[C@@H](Cc1cnc[nH]1)C(=O)N[C@@H](CCC(=O)O)C(=O)N[C@@H](CC(C)C)C(=O)N[C@@H](CCC(N)=O)C(=O)N[C@H](C(=O)N[C@@H](CC(C)C)C(=O)N[C@@H](CCC(N)=O)C(=O)N[C@H](C(=O)N[C@@H](Cc1ccc(O)cc1)C(=O)N1CCC[C@H]1C(=O)N[C@@H](CCCNC(=N)N)C(=O)N[C@H](C(=O)N[C@@H](CCC(=O)O)C(=O)N[C@H](C(=O)NCC(=O)N[C@@H](CO)C(=O)N[C@@H](CCC(N)=O)C(=O)N[C@H](C(=O)N[C@@H](Cc1ccc(O)cc1)C(N)=O)[C@@H](C)O)[C@@H](C)O)[C@@H](C)O)[C@@H](C)O)[C@@H](C)O)C(C)C)[C@@H](C)O [compound 130, [N-terminal(C20 diacid-gGlu), des1, 4G, 9V, 15Q, 21Q, 23aQ, 23bT, 23cY, 30S, 31Q, 32T, 33Y]mimylin] ({C20 diacid-γGlu}-ASGLSTAVLGRLSQELHELQTLQTYPRTETGSQTY-NH2) | ≧200 μM |  | ≧200 μM | ≧200 μM | ≧200 μM | ≧200 μM | 174 µM (≈ 746 µg/mL) | ≧200 μM |  | 9 µM (≈ 38.6 µg/mL) |  |  |  |  | 
2 | CC(C)C[C@H](NC(=O)[C@H](CCCNC(=N)N)NC(=O)CNC(=O)[C@H](CC(C)C)NC(=O)[C@@H](NC(=O)[C@H](C)NC(=O)[C@@H](NC(=O)[C@H](CO)NC(=O)[C@H](CC(C)C)NC(=O)[C@H](CCC(N)=O)NC(=O)[C@H](CO)NC(=O)[C@H](C)NC(=O)CC[C@H](NC(=O)CCCCCCCCCCCCCCCCCCC(=O)O)C(=O)O)[C@@H](C)O)C(C)C)C(=O)N[C@@H](CO)C(=O)N[C@@H](CCC(N)=O)C(=O)N[C@@H](CCCNC(=N)N)C(=O)N[C@@H](CC(C)C)C(=O)N[C@@H](Cc1cnc[nH]1)C(=O)N[C@@H](CCCNC(=N)N)C(=O)N[C@@H](CC(C)C)C(=O)N[C@@H](CCC(N)=O)C(=O)N[C@H](C(=O)N[C@@H](Cc1ccc(O)cc1)C(=O)N1CCC[C@H]1C(=O)N[C@@H](CCCNC(=N)N)C(=O)N[C@H](C(=O)N[C@@H](CCC(N)=O)C(=O)N[C@H](C(=O)NCC(=O)N[C@@H](CO)C(=O)N[C@@H](CCC(N)=O)C(=O)N[C@H](C(=O)N[C@@H](Cc1ccc(O)cc1)C(N)=O)[C@@H](C)O)[C@@H](C)O)[C@@H](C)O)[C@@H](C)O [compound 132, [N-terminal(C20 diacid-gGlu), des1, 4Q, 9V, 15Q, 16R, 19R, 21Q, 23Y, 27Q, 30S, 31Q, 32T, 33Y]mimylin] ({C20 diacid-γGlu}-ASQLSTAVLGRLSQRLHRLQTYPRTQTGSQTY-NH2) |  |  |  |  |  |  |  |  |  |  |  |  |  |  | 0.069 nM

More lines, now with the values ahead:

Row | Solubility ([1]; pH 3.0) | solubility at 18 h ([1]; pH 6.0) | Solubility ([1]; pH 6.5) | Solubility ([1]; pH 7.0) | Solubility ([1]; pH 7.5) | Solubility ([1]; pH 8.0) | solubility at 18 h ([1]; pH 4.0) | Solubility ([1]; pH 6.0) | Solubility ([1]; pH 4.0) | solubility at 18 h ([1]; pH 5.0) | solubility at 18 h ([1]; pH 6.5) | solubility at 18 h ([1]; pH 7.0) | solubility at 18 h ([1]; pH 7.5) | solubility at 18 h ([1]; pH 8.0) | IC50 (rat calcitonin receptor) | Compound
3 | ≧200 μM | 161 µM (≈ 642 µg/mL) | ≧200 μM | ≧200 μM | ≧200 μM | ≧200 μM |  |  |  |  |  |  |  |  |  | CC(C)C[C@H](NC(=O)CNC(=O)[C@H](CO)NC(=O)[C@H](C)NC(=O)CC[C@H](NC(=O)CCCCCCCCCCCCCCCCCCC(=O)O)C(=O)O)C(=O)N[C@@H](CO)C(=O)N[C@H](C(=O)N[C@@H](CC(C)C)C(=O)N[C@H](C(=O)N[C@@H](CC(C)C)C(=O)NCC(=O)N[C@@H](CCCNC(=N)N)C(=O)N[C@@H](CC(C)C)C(=O)N[C@@H](CO)C(=O)N[C@@H](CCC(N)=O)C(=O)N[C@@H](CCC(=O)O)C(=O)N[C@@H](CC(C)C)C(=O)N[C@@H](Cc1cnc[nH]1)C(=O)N[C@@H](CCC(=O)O)C(=O)N[C@@H](CC(C)C)C(=O)N[C@@H](CCC(N)=O)C(=O)N[C@H](C(=O)N[C@@H](Cc1ccc(O)cc1)C(=O)N1CCC[C@H]1C(=O)N[C@@H](CCCNC(=N)N)C(=O)N[C@H](C(=O)N[C@@H](CCC(=O)O)C(=O)N[C@H](C(=O)NCC(=O)N[C@@H](CO)C(=O)N[C@@H](CCC(N)=O)C(=O)N[C@H](C(=O)N[C@@H](Cc1ccc(O)cc1)C(N)=O)[C@@H](C)O)[C@@H](C)O)[C@@H](C)O)[C@@H](C)O)C(C)C)[C@@H](C)O [compound 126, [N-terminal(C20 diacid-gGlu), des1, 4G, 8L, 9V, 15Q, 21Q, 23Y, 30S, 31Q, 32T, 33Y]mimylin] ({C20 diacid-γGlu}-ASGLSTLVLGRLSQELHELQTYPRTETGSQTY-NH2)
4 | ≧200 μM |  | ≧200 μM | ≧200 μM | ≧200 μM | ≧200 μM | 31 µM (≈ 124 µg/mL) | ≧200 μM |  |  |  |  |  |  |  | CC(C)C[C@H](NC(=O)CC[C@H](NC(=O)CCCCCCCCCCCCCCCCCCC(=O)O)C(=O)O)C(=O)N[C@@H](CO)C(=O)NCC(=O)N[C@@H](CC(C)C)C(=O)N[C@@H](CO)C(=O)N[C@H](C(=O)N[C@@H](C)C(=O)N[C@H](C(=O)N[C@@H](CC(C)C)C(=O)NCC(=O)N[C@@H](CCCNC(=N)N)C(=O)N[C@@H](CC(C)C)C(=O)N[C@@H](CO)C(=O)N[C@@H](CCC(N)=O)C(=O)N[C@@H](CCC(=O)O)C(=O)N[C@@H](CC(C)C)C(=O)N[C@@H](Cc1cnc[nH]1)C(=O)N[C@@H](CCC(=O)O)C(=O)N[C@@H](CC(C)C)C(=O)N[C@@H](CCC(N)=O)C(=O)N[C@H](C(=O)N[C@@H](Cc1ccc(O)cc1)C(=O)N1CCC[C@H]1C(=O)N[C@@H](CCCNC(=N)N)C(=O)N[C@H](C(=O)N[C@@H](CCC(=O)O)C(=O)N[C@H](C(=O)NCC(=O)N[C@@H](CO)C(=O)N[C@@H](CCC(N)=O)C(=O)N[C@H](C(=O)N[C@@H](Cc1ccc(O)cc1)C(N)=O)[C@@H](C)O)[C@@H](C)O)[C@@H](C)O)[C@@H](C)O)C(C)C)[C@@H](C)O [compound 127, [N-terminal(C20 diacid-gGlu), des1, 2L, 4G, 9V, 15Q, 21Q, 23Y, 30S, 31Q, 32T, 33Y]mimylin] ({C20 diacid-γGlu}-LSGLSTAVLGRLSQELHELQTYPRTETGSQTY-NH2)
5 | ≧200 μM | 1 µM (≈ 4.02 µg/mL) |  |  |  |  |  |  | ≧200 μM | 1 µM (≈ 4.02 µg/mL) | 1 µM (≈ 4.02 µg/mL) | 1 µM (≈ 4.02 µg/mL) | 52 µM (≈ 209 µg/mL) | 185 µM (≈ 743 µg/mL) |  | CC(C)C[C@H](NC(=O)CNC(=O)[C@H](CO)NC(=O)[C@H](CC(C)C)NC(=O)[C@H](CCC(=O)O)NC(=O)CC[C@H](NC(=O)CCCCCCCCCCCCCCCCCCC(=O)O)C(=O)O)C(=O)N[C@@H](CO)C(=O)N[C@H](C(=O)N[C@@H](CC(C)C)C(=O)N[C@H](C(=O)N[C@@H](CC(C)C)C(=O)NCC(=O)N[C@@H](CCCNC(=N)N)C(=O)N[C@@H](CC(C)C)C(=O)N[C@@H](CO)C(=O)N[C@@H](CCC(N)=O)C(=O)N[C@@H](CCC(=O)O)C(=O)N[C@@H](CC(C)C)C(=O)N[C@@H](Cc1cnc[nH]1)C(=O)N[C@@H](CCC(=O)O)C(=O)N[C@@H](CC(C)C)C(=O)N[C@@H](CCC(N)=O)C(=O)N[C@H](C(=O)N[C@@H](Cc1ccc(O)cc1)C(=O)N1CCC[C@H]1C(=O)N[C@@H](CCCNC(=N)N)C(=O)N[C@H](C(=O)NCC(=O)N[C@H](C(=O)NCC(=O)N[C@@H](CO)C(=O)NCC(=O)N[C@H](C(=O)N[C@@H](Cc1ccc(O)cc1)C(N)=O)[C@@H](C)O)[C@@H](C)O)[C@@H](C)O)[C@@H](C)O)C(C)C)[C@@H](C)O [compound 129, [N-terminal(C20 diacid-gGlu), 2L, 4G, 8L, 9V, 15Q, 21Q, 23Y, 27G, 30S, 31G, 32T, 33Y]mimylin] ({C20 diacid-γGlu}-ELSGLSTLVLGRLSQELHELQTYPRTGTGSGTY-NH2)
